Data: US20100120775A1, “Farnesoid X Receptor Agonists” (SMITHKLINE BEECHAM CORPORATION, priority 2006, published 2010)

Molecular target: T1, Human FXRα Ligand Binding Domain (Homo sapiens, UniProt Q96RI1)
T1 construct: polyhistidine (pRSET-A vector) (N); made in house; host or cells: E. coli BL21 (DE3), pRSET-A vector
T1 sequence (Q96RI1 237-472 isoform Q96RI1-2): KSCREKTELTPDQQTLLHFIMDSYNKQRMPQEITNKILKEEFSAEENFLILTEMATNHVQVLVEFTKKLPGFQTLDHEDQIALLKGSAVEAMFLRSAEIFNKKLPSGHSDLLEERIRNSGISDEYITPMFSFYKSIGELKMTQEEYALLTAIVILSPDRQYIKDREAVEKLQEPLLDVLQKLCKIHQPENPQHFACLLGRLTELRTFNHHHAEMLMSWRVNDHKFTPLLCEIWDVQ
Test: FXR Cofactor Binding Assay (FXR LBD / SRC-1 peptide, time resolved fluorescence)
Conditions: FXRα LBD with biotinylated SRC-1 (LCD2, 676-700) peptide, read-out: Activity (pEC50) (converted)
Excerpt: Determination of a ligand mediated cofactor peptide interaction to quantify ligand binding to the nuclear receptor Farnesoid X Receptor (FXR). The method measures the ability of putative ligands to modulate the interaction between the purified bacterial expressed FXRα ligand binding domain (LBD) and a synthetic biotinylated peptide based on residues 676-700 of steroid receptor coactivator-1 (SRC-1) (LXXLL-containing domain-2 where L is the amino acid leucine and X indicates any other amino acid (LCD2), 676-700). The sequence of the SRC-1 peptide used is as published in Iannone, M. A., et al., 2001 Cytometry 44:326-337 where the N-terminus was biotinylated (B) and the C-terminus was amidated. Detection of the associated complex was measured by time resolved fluorescence (TRF). The purified LBD of FXR was labeled with biotin then mixed with stoichiometric amounts of allophycocyanin (APC) labeled streptavidin (Molecular Probes). The biotinylated peptide was then mixed with a ½ stoichiometric amount of europium labeled streptavidin (Wallac Inc). Each was then blocked with a 5 fold excess of biotin and allowed to equilibrate for 15 min. Equimolar amounts of receptor and peptide were mixed together and were allowed to equilibrate for at least 30 min prior to the addition to either a variable or constant concentrations of the sample for which the affinity is to be determined. After equilibration, the time-resolved fluorescent signal was quantitated using a fluorescent plate reader. The affinity of the test compound was estimated from a plot of fluorescence versus concentration of test compound added.
A basal level of FXR: peptide formation is observed in the absence of added ligand. Ligands that promote the complex formation induce a concentration-dependent increase in time-resolved fluorescent signal. Compounds which bind equally well to both monomeric FXR and to the FXR: peptide complex would be expected to give no change in signal, whereas ligands which bind preferentially to the monomeric receptor would be expected to induce a concentration-dependent decrease in the observed signal.
Human FXRα Ligand Binding Domain (FXRα LBD) was expressed in E. coli strain BL21 (DE3) as an amino-terminal polyhistidine tagged fusion protein. Expression was under the control of an isopropyl-13-D-thiogalactopyranoside (IPTG) inducible T7 promoter. DNA encoding this recombinant protein is subcloned into the pRSET-A expression vector (Invitrogen). The coding sequence of Human FXRα LBD was derived from Genbank accession number U 68233 (amino acids 237 to 472).
Routinely, 30-40 g cell paste (equivalent to 2-3 liters of the fermentation batch) was resuspended in 200-250 mL Tris buffered saline (TBS), pH 7.2 (25 mM Tris-hydroxymethylamino methane (Tris), 150 mM sodium chloride). Cells were lysed by passing 3 times through a French Press and cell debris was removed by centrifugation (30 minutes, 20,000×gravity, 4° C.). The cleared supernatant was filtered through course pre-filters, and TBS, pH 7.2, 500 mM imidazole was added to obtain a final imidazole concentration of 50 mM. This lysate was loaded onto a column (6×8 cm) packed with Sepharose [Ni^|| charged]Chelation resin (Pharmacia) and pre-equilibrated with TBS pH 7.2/50 mM imidazole. After washing to baseline absorbance with equilibration buffer, the column was washed with one column volume of TBS pH 7.2 containing 90 mM imidazole. FXRα LBD was eluted directly with 365 mM imidazole. Column fractions were pooled and dialyzed against TBS, pH 7.2, containing 0.5 mM EDTA and 5 mM DTT. The dialyzed protein sample was concentrated using Centri-prep 10 K (Amicon) and subjected to size exclusion, using a column (3×90 cm) packed with Sepharose S-75 resin (Pharmacia) pre-equilibrated with TBS, pH 7.2, containing 0.5 mM ethylene diamine tetraacetic acid (EDTA) and 5 mM dithiothreitol (DTT). […]

EC50 [nM] | Structure (SMILES)
102 to 1000 | CC(C)c1onc(-c2c(Cl)cccc2Cl)c1COc1ccc(-c2ccc3c(C(=O)O)nccc3c2)cc1 [Example 36, 6-[4-({[3-(2,6-Dichlorophenyl)-5-(1-methylethyl)-4-isoxazolyl]methyl}oxy)phenyl]-1-isoquinolinecarboxylic acid]
102 to 1000 | Cc1cc(-c2ccc3nc(C(=O)O)ccc3c2)ccc1OCc1c(-c2c(Cl)cccc2Cl)noc1C(C)C [Example 32, 6-[4-({[3-(2,6-Dichlorophenyl)-5-(1-methylethyl)-4-isoxazolyl]methyl}oxy)-3-methylphenyl]-2-quinolinecarboxylic acid]
102 to 1000 | Cc1cc(OCc2c(-c3c(Cl)cccc3Cl)noc2C(C)C)ccc1-c1ccc2nc(C(=O)O)ccc2c1 [Example 33, 6-[4-({[3-(2,6-Dichlorophenyl)-5-(1-methylethyl)-4-isoxazolyl]methyl}oxy)-2-methylphenyl]-2-quinolinecarboxylic acid]
102 to 1000 | CC(C)c1onc(-c2c(Cl)cncc2Cl)c1COc1ccc(-c2ccc3nc(C(=O)O)ccc3c2)cc1 [Example 25, 6-[4-({[3-(3,5-Dichloro-4-pyridinyl)-5-(1-methylethyl)-4-isoxazolyl]methyl}oxy)phenyl]-2-quinolinecarboxylic acid]
< 100 | Cc1cc(C(=O)O)nc2ccc(-c3ccc(OCc4c(-c5c(Cl)cccc5Cl)noc4C(C)C)cc3)cc12 [Example 34, 6-[4-({[3-(2,6-Dichlorophenyl)-5-(1-methylethyl)-4-isoxazolyl]methyl}oxy)phenyl]-4-methyl-2-quinolinecarboxylic acid]
102 to 1000 | CC(C)c1onc(CSc2c(Cl)cccc2Cl)c1COc1ccc(-c2ccc3nc(C(=O)O)ccc3c2)cc1 [Example 22, 6-[4-({[3-{[(2,6-Dichlorophenyl)thio]methyl}-5-(1-methylethyl)-4-isoxazolyl]methyl}oxy)phenyl]-2-quinolinecarboxylic acid]
102 to 1000 | Cc1cc2cc(-c3ccc(OCc4c(-c5c(Cl)cccc5Cl)noc4C(C)C)cc3)ccc2nc1C(=O)O [Example 31, 6-[4-({[3-(2,6-dichlorophenyl)-5-(1-methylethyl)-4-isoxazolyl]methyl}oxy)phenyl]-3-methyl-2-quinolinecarboxylic acid]
102 to 1000 | CC[C@@H](C)c1onc(-c2c(Cl)cccc2Cl)c1COc1ccc(-c2ccc3nc(C(=O)O)ccc3c2)cc1 [Example 14, 6-{4-[({3-(2,6-Dichlorophenyl)-5-[(1R)-1-methylpropyl]-4-isoxazolyl}methyl)oxy]phenyl}-2-quinolinecarboxylic acid]
102 to 1000 | CC(C)c1onc(-c2c(Cl)ccnc2Cl)c1COc1ccc(-c2ccc3nc(C(=O)O)ccc3c2)cc1 [Example 28, 6-[4-({[3-(2,4-Dichloro-3-pyridinyl)-5-(1-methylethyl)-4-isoxazolyl]methyl}oxy)phenyl]-2-quinolinecarboxylic acid]
102 to 1000 | CC(C)c1onc(-c2c(Cl)cccc2Cl)c1COc1ccc(-c2cc3ccc(C(=O)O)nc3cc2F)cc1 [Example 30, 6-[4-({[3-(2,6-Dichlorophenyl)-5-(1-methylethyl)-4-isoxazolyl]methyl}oxy)phenyl]-7-fluoro-2-quinolinecarboxylic acid]
102 to 1000 | CC(C)c1onc(COc2c(Cl)cccc2Cl)c1COc1ccc(-c2ccc3nc(C(=O)O)ccc3c2)cc1 [Example 20, 6-[4-({[3-{[(2,6-Dichlorophenyl)oxy]methyl}-5-(1-methylethyl)-4-isoxazolyl]methyl}oxy)phenyl]-2-quinolinecarboxylic acid]

Second part, the molecule before the results:

Structure (SMILES) | EC50 [nM]
Cc1cccc(C)c1OCc1noc(C(C)C)c1COc1ccc(-c2ccc3cc(C(=O)O)ncc3c2)cc1 [Example 16, 7-[4-({[3-{[(2,6-Dimethylphenyl)oxy]methyl}-5-(1-methylethyl)-4-isoxazolyl]methyl}oxy)phenyl]-3-isoquinolinecarboxylic acid] | 102 to 1000
Cc1cccc(C)c1OCc1noc(C2CCC2)c1COc1ccc(-c2ccc3cc(C(=O)O)ncc3c2)cc1 [Example 17, 7-(4-{[(5-Cyclobutyl-3-{[(2,6-dimethylphenyl)oxy]methyl}-4-isoxazolyl)methyl]oxy}phenyl)-3-isoquinolinecarboxylic acid] | 102 to 1000
CC(C)c1onc(-c2c(Cl)cccc2Cl)c1CSc1ccc(-c2ccc3nc(C(=O)O)ccc3c2)cc1 [Example 38, 6-[4-({[3-(2,6-Dichlorophenyl)-5-(1-methylethyl)-4-isoxazolyl]methyl}thio)phenyl]-2-quinolinecarboxylic acid] | 102 to 1000
O=C(O)c1ccc2cc(-c3ccc(OCc4c(C5CCCC5)noc4C4CCCC4)cc3)ccc2n1 [Example 26, 6-(4-{[(3,5-Dicyclopentyl-4-isoxazolyl)methyl]oxy}phenyl)-2-quinolinecarboxylic acid] | 102 to 1000
CC(C)c1onc(COC2CCCC2)c1COc1ccc(-c2ccc3nc(C(=O)O)ccc3c2)cc1 [Example 27, 6-[4-({[3-[(Cyclopentyloxy)methyl]-5-(1-methylethyl)-4-isoxazolyl]methyl}oxy)phenyl]-2-quinolinecarboxylic acid] | 1020 to 10000
CC(C)c1onc(-c2c(Cl)cccc2Cl)c1COc1ccc(-c2ccc3c(C(=O)O)cc(C(=O)O)nc3c2)cc1 [Example 3, 7-[4-({[3-(2,6-Dichlorophenyl)-5-(1-methylethyl)-4-isoxazolyl]methyl}oxy)phenyl]-2,4-quinolinedicarboxylic acid] | 102 to 1000
O=C(O)c1cc2ccc(-c3ccc(OCc4c(-c5c(Cl)cccc5Cl)noc4C4CC4)cc3)cc2cn1 [Example 10, 7-[4-({[5-Cyclopropyl-3-(2,6-dichlorophenyl)-4-isoxazolyl]methyl}oxy)phenyl]-3-isoquinolinecarboxylic acid] | 102 to 1000
CC(C)c1onc(-c2c(Cl)cccc2Cl)c1COc1ccc(-c2ccc3cc(C(=O)O)cnc3c2)cc1 [Example 2, 7-[4-({[3-(2,6-Dichlorophenyl)-5-(1-methylethyl)-4-isoxazolyl]methyl}oxy)phenyl]-3-quinolinecarboxylic acid] | 102 to 1000
CC(C)c1onc(-c2c(Cl)cccc2Cl)c1COc1ccc(-c2ccc3nc(C(=O)O)ccc3c2)cc1 [Example 1g, 6-[4-({[3-(2,6-Dichlorophenyl)-5-(1-methylethyl)-4-isoxazolyl]methyl}oxy)phenyl]-2-quinolinecarboxylic acid] | 102 to 1000
O=C(O)c1cc2ccc(-c3ccc(OCc4c(-c5c(Cl)cncc5Cl)noc4C4CCC4)cc3)cc2cn1 [Example 9, 7-[4-({[5-Cyclobutyl-3-(3,5-dichloro-4-pyridinyl)-4-isoxazolyl]methyl}oxy)phenyl]-3-isoquinolinecarboxylic acid] | 102 to 1000
O=C(O)c1ccc2cc(-c3ccc(OCc4c(-c5c(Cl)cccc5Cl)noc4C4CC4)cc3)ccc2n1 [Example 11, 6-[4-({[5-Cyclopropyl-3-(2,6-dichlorophenyl)-4-isoxazolyl]methyl}oxy)phenyl]-2-quinolinecarboxylic acid] | 102 to 1000
O=C(O)c1ccc2cc(-c3ccc(OCc4c(-c5c(Cl)cccc5Cl)noc4C4CCCC4)cc3)ccc2n1 [Example 6, 6-[4-({[5-Cyclopentyl-3-(2,6-dichlorophenyl)-4-isoxazolyl]methyl}oxy)phenyl]-2-quinolinecarboxylic acid] | 102 to 1000
